The target in this assay is bovine cardiac myofibrils (full-length cardiac myosin ATPase in the native sarcomere) (Bos taurus (Bovine), UniProt Q9BE39). Briefly: Skinned bovine cardiac myofibril ATPase assay (PK/LDH-coupled). As to conditions: Ca2+ activating to 75% of maximal rate; for CDMF75 IC15: concentration giving 15% inhibition; for IC50: read-out: CDMF75 IC50. The class given is biochemical. The procedure, abridged:
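Triton-skinned bovine left-ventricle myofibrils (1 mg/mL) in PM 12 buffer (12 mM PIPES, 2 mM MgCl2, pH 6.8) with 50 μM ATP, 0.6 mM EGTA and CaCl2 set for 50% or 75% activation. Steady-state ATPase inhibition followed by PK/LDH-coupled NADH oxidation at 340 nm.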

Sequence of bovine cardiac myofibrils (full-length cardiac myosin ATPase in the native sarcomere) (Q9BE39 whole entry): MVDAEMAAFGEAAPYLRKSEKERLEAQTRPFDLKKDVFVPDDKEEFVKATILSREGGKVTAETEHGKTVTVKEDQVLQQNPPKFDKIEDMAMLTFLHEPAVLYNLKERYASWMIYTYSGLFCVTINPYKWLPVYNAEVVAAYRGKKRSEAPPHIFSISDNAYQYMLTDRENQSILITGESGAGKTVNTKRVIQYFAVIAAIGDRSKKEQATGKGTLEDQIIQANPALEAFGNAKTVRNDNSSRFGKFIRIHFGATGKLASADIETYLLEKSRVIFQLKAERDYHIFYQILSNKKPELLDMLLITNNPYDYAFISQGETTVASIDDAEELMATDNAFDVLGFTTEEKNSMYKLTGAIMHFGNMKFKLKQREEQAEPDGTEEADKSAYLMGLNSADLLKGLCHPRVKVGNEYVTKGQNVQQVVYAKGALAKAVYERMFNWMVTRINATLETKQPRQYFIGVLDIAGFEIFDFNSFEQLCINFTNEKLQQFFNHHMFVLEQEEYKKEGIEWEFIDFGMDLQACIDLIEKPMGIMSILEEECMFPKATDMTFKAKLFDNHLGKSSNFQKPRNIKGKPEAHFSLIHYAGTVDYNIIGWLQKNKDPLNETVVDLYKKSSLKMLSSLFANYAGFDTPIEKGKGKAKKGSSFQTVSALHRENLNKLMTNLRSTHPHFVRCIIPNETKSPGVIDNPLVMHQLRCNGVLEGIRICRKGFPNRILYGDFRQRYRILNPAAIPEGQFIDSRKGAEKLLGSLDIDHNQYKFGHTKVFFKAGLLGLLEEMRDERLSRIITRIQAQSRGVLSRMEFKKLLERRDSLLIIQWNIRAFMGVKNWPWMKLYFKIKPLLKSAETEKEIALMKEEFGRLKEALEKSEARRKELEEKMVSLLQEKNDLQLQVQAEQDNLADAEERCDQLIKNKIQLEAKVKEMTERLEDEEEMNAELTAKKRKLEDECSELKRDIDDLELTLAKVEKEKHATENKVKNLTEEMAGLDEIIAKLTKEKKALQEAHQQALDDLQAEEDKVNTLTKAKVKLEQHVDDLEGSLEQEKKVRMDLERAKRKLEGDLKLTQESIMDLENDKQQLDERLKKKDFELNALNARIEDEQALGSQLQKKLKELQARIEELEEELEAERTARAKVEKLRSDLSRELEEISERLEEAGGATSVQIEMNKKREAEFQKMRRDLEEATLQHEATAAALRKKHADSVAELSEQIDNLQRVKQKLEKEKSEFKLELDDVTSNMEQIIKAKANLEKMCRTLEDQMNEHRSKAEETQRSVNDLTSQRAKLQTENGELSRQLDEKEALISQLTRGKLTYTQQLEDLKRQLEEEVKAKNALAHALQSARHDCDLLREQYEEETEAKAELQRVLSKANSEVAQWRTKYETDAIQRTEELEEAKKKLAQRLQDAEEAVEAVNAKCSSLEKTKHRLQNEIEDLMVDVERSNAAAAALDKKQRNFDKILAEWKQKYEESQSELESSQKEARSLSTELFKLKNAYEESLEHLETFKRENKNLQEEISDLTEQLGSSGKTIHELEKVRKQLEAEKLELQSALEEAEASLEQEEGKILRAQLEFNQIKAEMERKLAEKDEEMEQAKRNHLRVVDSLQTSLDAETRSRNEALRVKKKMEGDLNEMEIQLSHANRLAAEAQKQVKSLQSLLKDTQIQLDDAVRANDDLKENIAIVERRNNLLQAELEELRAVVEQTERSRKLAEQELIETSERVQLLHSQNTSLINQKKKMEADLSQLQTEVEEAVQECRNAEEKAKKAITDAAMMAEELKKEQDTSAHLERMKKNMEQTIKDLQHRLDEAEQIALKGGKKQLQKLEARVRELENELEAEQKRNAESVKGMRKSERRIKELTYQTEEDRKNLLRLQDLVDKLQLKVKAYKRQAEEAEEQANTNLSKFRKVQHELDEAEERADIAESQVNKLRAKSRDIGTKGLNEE
Sequence of bovine cardiac myofibrils (full-length cardiac myosin ATPase in the native sarcomere) (P85100 whole entry partner): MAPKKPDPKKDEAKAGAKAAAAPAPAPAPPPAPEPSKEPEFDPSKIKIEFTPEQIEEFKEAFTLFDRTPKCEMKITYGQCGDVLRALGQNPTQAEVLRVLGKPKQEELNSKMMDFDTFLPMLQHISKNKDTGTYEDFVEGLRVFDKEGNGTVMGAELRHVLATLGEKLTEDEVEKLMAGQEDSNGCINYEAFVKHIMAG
Sequence of bovine cardiac myofibrils (full-length cardiac myosin ATPase in the native sarcomere) (Q3SZE5 whole entry partner): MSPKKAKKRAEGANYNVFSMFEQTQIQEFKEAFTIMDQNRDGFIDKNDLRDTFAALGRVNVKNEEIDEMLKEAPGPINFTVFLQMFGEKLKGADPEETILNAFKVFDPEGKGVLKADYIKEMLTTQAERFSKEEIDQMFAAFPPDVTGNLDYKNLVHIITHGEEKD

Regarding `Cc1nc(C(=O)NC2CCc3cc(-c4noc(C(F)F)n4)ccc32)c(C)o1` (centres unmarked) [Compound 22, N-(5-(5-(difluoromethyl)-1,2,4-oxadiazol-3-yl)-2,3-dihydro-1H-inden-1-yl)-2,5-dimethyloxazole-4-carboxamide], the “CDMF75 IC15” value came to 5.5 µM and the IC50 is 28.2 µM.
For `Cc1nc(-c2ccc3c(c2)CCC3NC(=O)c2ocnc2C)no1` (centres unmarked) [Compound 51, 4-methyl-N-(5-(5-methyl-1,2,4-oxadiazol-3-yl)-2,3-dihydro-1H-inden-1-yl)oxazole-5-carboxamide], in that order: 1.2 µM and 3.6 µM.
As to `Cc1cc(C(=O)NC2CCc3cc(-c4cc(C)on4)ccc32)ccn1` (centres unmarked) [Compound 137, 2-methyl-N-(5-(5-methylisoxazol-3-yl)-2,3-dihydro-1H-inden-1-yl)isonicotinamide], the “CDMF75 IC15” value is 1.2 µM and the IC50 was found to be 4.9 µM.
For `Cc1cc(C(=O)N[C@@H]2CCc3cc(-c4cc(C)on4)ccc32)ccn1` [Compound 138, (R)-2-methyl-N-(5-(5-methylisoxazol-3-yl)-2,3-dihydro-1H-inden-1-yl)isonicotinamide], in that order: 0.8 µM and 2.9 µM.
For `Cc1cc(C(=O)NC2CCc3cc(-c4noc(C)n4)ccc32)on1` (centres unmarked) [Compound 34, 3-methyl-N-(5-(5-methyl-1,2,4-oxadiazol-3-yl)-2,3-dihydro-1H-inden-1-yl)isoxazole-5-carboxamide], in that order: 2.1 µM and 8.1 µM.
For `O=C(N[C@@H]1CCc2cc(-c3noc(C4CC4)n3)ccc21)c1cnn(CCCO)c1` [Compound 601, (R)-N-(5-(5-cyclopropyl-1,2,4-oxadiazol-3-yl)-2,3-dihydro-1H-inden-1-yl)-1-(3-hydroxypropyl)-1H-pyrazole-4-carboxamide] the same measures were 1.6 µM and 7.3 µM.
For `Cc1nc(-c2ccc3c(c2)CCC3NC(=O)Nc2cccnn2)no1` (centres unmarked) [Compound 97, 1-(5-(5-methyl-1,2,4-oxadiazol-3-yl)-2,3-dihydro-1H-inden-1-yl)-3-(pyridazin-3-yl)urea], the “CDMF75 IC15” value came to 2.0 µM and the half-inhibitory concentration (IC50) is 7.8 µM.
For `COCc1nc(-c2ccc3c(c2)CC[C@H]3NC(=O)OC)no1` [Compound 306, methyl (R)-(5-(5-(methoxymethyl)-1,2,4-oxadiazol-3-yl)-2,3-dihydro-1H-inden-1-yl)carbamate], in that order: 0.9 µM and 3.7 µM.
On to `C[C@H](CO)c1nc(-c2ccc3c(c2)CC[C@H]3NC(=O)c2ccnn2C)no1` [Compound 497, N-((R)-5-(5-((R)-1-hydroxypropan-2-yl)-1,2,4-oxadiazol-3-yl)-2,3-dihydro-1H-inden-1-yl)-1-methyl-1H-pyrazole-5-carboxamide], for which the “CDMF75 IC15” value was determined as 7.4 µM and the half-maximal inhibitory concentration (IC50) was 39.2 µM.
For `Cn1nnc(C(=O)NC2CCc3cc(-c4noc(C(F)F)n4)ccc32)n1` (centres unmarked) [Compound 81, N-(5-(5-(difluoromethyl)-1,2,4-oxadiazol-3-yl)-2,3-dihydro-1H-inden-1-yl)-2-methyl-2H-tetrazole-5-carboxamide] the same measures were 1.1 µM and 3.7 µM.
For `O=C1C[C@H](C(=O)N[C@@H]2CCc3cc(-c4noc(C5CC5)n4)ccc32)N1` [Compound 315, (R)-N-((R)-5-(5-cyclopropyl-1,2,4-oxadiazol-3-yl)-2,3-dihydro-1H-inden-1-yl)-4-oxoazetidine-2-carboxamide] the same measures were 6.1 µM and 26.4 µM.
For `COCc1nc(-c2ccc3c(c2)CC[C@H]3NC(=O)c2cnn(C)c2C)no1` [Compound 181, (R)-N-(5-(5-(methoxymethyl)-1,2,4-oxadiazol-3-yl)-2,3-dihydro-1H-inden-1-yl)-1,5-dimethyl-1H-pyrazole-4-carboxamide], in that order: 1.1 µM and 4 µM.
Turning to `Cc1nc(-c2ccc3c(c2)CCC3NC(=O)c2ocnc2C2CC2)no1` (centres unmarked) [Compound 52, 4-cyclopropyl-N-(5-(5-methyl-1,2,4-oxadiazol-3-yl)-2,3-dihydro-1H-inden-1-yl)oxazole-5-carboxamide], the “CDMF75 IC15” value stood at 1.6 µM and the concentration for half-maximal inhibition (IC50) is 4.9 µM.
For `CC(=O)N1CC[C@@H]1C(=O)N[C@@H]1CCc2cc(-c3noc(C4CC4)n3)ccc21` [Compound 331, (R)-1-acetyl-N-((R)-5-(5-cyclopropyl-1,2,4-oxadiazol-3-yl)-2,3-dihydro-1H-inden-1-yl)azetidine-2-carboxamide] the same measures were 20.0 µM and above 39.2 µM.
For `Cc1cc(-c2ccc3c(c2)CC[C@H]3NC(=O)c2cnn(C)c2)no1` [Compound 402, (R)-1-methyl-N-(5-(5-methylisoxazol-3-yl)-2,3-dihydro-1H-inden-1-yl)-1H-pyrazole-4-carboxamide], in that order: 1 µM and 3.8 µM.
Turning to `COC(=O)N[C@@H]1CCc2cc(-c3noc(C)n3)ccc21` [Compound 303, methyl (R)-(5-(5-methyl-1,2,4-oxadiazol-3-yl)-2,3-dihydro-1H-inden-1-yl)carbamate], the “CDMF75 IC15” value worked out at 0.6 µM and the IC50 stood at 2.7 µM.
For `Cc1nn(C)cc1C(=O)N[C@@H]1CCc2cc(-c3noc(C4CCC4)n3)ccc21` [Compound 150, (R)-N-(5-(5-cyclobutyl-1,2,4-oxadiazol-3-yl)-2,3-dihydro-1H-inden-1-yl)-1,3-dimethyl-1H-pyrazole-4-carboxamide], in that order: 0.3 µM and 1.2 µM.
For `Cc1cc(-c2ccc3c(c2)CC[C@H]3NC(=O)c2cn[nH]c2C)no1` [Compound 432, (R)-5-methyl-N-(5-(5-methylisoxazol-3-yl)-2,3-dihydro-1H-inden-1-yl)-1H-pyrazole-4-carboxamide], in that order: 0.8 µM and 2.5 µM.
For `CCc1nc(-c2ccc3c(c2)CC[C@H]3NC(=O)c2cnn(CC(OC)OC)c2)no1` [Compound 530, (R)-1-(2,2-dimethoxyethyl)-N-(5-(5-ethyl-1,2,4-oxadiazol-3-yl)-2,3-dihydro-1H-inden-1-yl)-1H-pyrazole-4-carboxamide], in that order: 2.6 µM and 8.9 µM.
In the case of `CCc1nn(C)cc1C(=O)NC1CCc2cc(-c3noc(C(F)F)n3)ccc21` (centres unmarked) [Compound 25, N-(5-(5-(difluoromethyl)-1,2,4-oxadiazol-3-yl)-2,3-dihydro-1H-inden-1-yl)-3-ethyl-1-methyl-1H-pyrazole-4-carboxamide], the “CDMF75 IC15” value came to 3.9 µM and the 50% inhibitory concentration (IC50) was 16.5 µM.
For the compound `Cc1cc(C(=O)N[C@@H]2COc3cc(-c4noc(C(F)F)n4)cnc32)ccn1` [Compound 196, (S)—N-(6-(5-(difluoromethyl)-1,2,4-oxadiazol-3-yl)-2,3-dihydrofuro[3,2-b]pyridin-3-yl)-2-methylisonicotinamide], the “CDMF75 IC15” value turned out to be 4.5 µM and the IC50 stood at 17.4 µM.
For `CCc1nc(-c2ccc3c(c2)OC[C@H]3NC(=O)c2ccnn2C)no1` [Compound 228, (S)—N-(6-(5-ethyl-1,2,4-oxadiazol-3-yl)-2,3-dihydrobenzofuran-3-yl)-1-methyl-1H-pyrazole-5-carboxamide] the same measures were 0.3 µM and 0.8 µM.

The IC50 is the concentration that inhibits the measured activity by half.

Source of the values: patent US12065436B2, “Cardiac sarcomere inhibitors” (Cytokinetics, Inc., priority 2018, dated 2024).
